Laboratory results as given in patent US20240200022A1, “METHODS AND SYSTEMS FOR THE CULTURE OF CELLS AT LIQUID-LIQUID INTERFACES” (QUEEN MARY UNIVERSITY OF LONDON, priority 2017, published 2024).

Experiments:
Assay type in all cases: cell-based, human
[1] = test system: HaCaT cells; assay: HaCaT cell spreading assay on oil interfaces (cell area from phalloidin staining); settings: HaCaT on BSA interfaces, Novec 7500+PFBC; blebbistatin 10 μM, Y27632 10 μM, Cytochalasin D 1 μM
Experimental: Generation of fluorinated oil droplet substrates for cell culture. Thin glass slides (25×60 mm, VWR) were plasma oxidized for 10 minutes and placed into a staining jar. Toluene (1 mL, Sigma-Aldrich) and 30 μL trichloro (1H, 1H, 2H, 2H-perfluorooctyl) silane (Sigma-Aldrich) were added in a glass vial. The staining jar containing the glass slides and the glass vial with the silane solution were placed into a desiccator under vacuum for 5 min and then left under reduced atmosphere but sealed overnight. The fluorinated glass slides were cut into chips (1×1 cm) and placed into a 24 well plate. After sterilisation with 70% ethanol, the wells were washed (twice) and then filled with 2 mL PBS (pH 7.4, except when specified, for the adsorption of poly(L-lysine) at pH 10.5). 100 tL droplets of fluorinated oil (Novec 7500) with fluorinated surfactant (2,3,4,5,6-Pentafluorobenzoyl chloride) at specified concentrations (see specific experiments, but often 0.01 mg/mL) were deposited on top of the glass slide and formed a fluorinated oil droplet spreading over the entire substrate. […] For the deposition of BSA, a 10 μL BSA solution (100 mg/mL) was added into PBS, to make a final concentration of 1 mg/mL, and incubated for 1 h.
HaCaT keratinocyte cell line culture and seeding. Human keratinocyte HaCaT cells were cultured in DMEM (Thermofisher Scientific) containing 10% foetal bovine serum (FBS, Labtech), 1% L-Glutamine (200 mM) and 1% Penicillin-Streptomycin (5,000 U/mL). […] For cell spreading assays HaCaT cells were harvested and seeded onto fluorinated droplets at a density of 25,000 per well (13,000 per cm^2).
Immuno-fluorescence microscopy and data analysis. Fluorescence microscopy images were acquired with a Leica DMI4000B fluorescence microscopy (CTR4000 lamp; 63×1.25 NA, oil lens; 10×0.3 NA lens; 2.5×0.07 NA lens; DFC300FX camera). […] To determine adhesion cell areas, images were analyzed by thresholding and watershedding fluorescence images of the cytoskeleton (phalloidin stained). […]

[2] = test system: primary keratinocytes; assay: Keratinocyte cell sheet formation on flat fluorinated oil interfaces; settings: FAD medium containing ROCK inhibitor, 10 μM; PLL-functionalised fluorinated oil
Excerpt: Keratinocyte culture and seeding.
Immunofluorescence staining and antibodies.
Immuno-fluorescence microscopy and data analysis. Fluorescence microscopy images were acquired with a Leica DMI4000B fluorescence microscopy (CTR4000 lamp; 63×1.25 NA, oil lens; 10×0.3 NA lens; 2.5×0.07 NA lens; DFC300FX camera). Confocal microscopy images were acquired with a Leica TCS SP2 confocal and multiphoton microscope (X-Cite 120 LED lamp; 63×1.40-0.60 NA, oil lens; 10×0.3 NA lens; DFC420C CCD camera). To determine cell densities per mm^2, cell counting was carried out by thresholding and watershedding nuclei images in ImageJ. […] To determine adhesion cell areas, images were analyzed by thresholding and watershedding fluorescence images of the cytoskeleton (phalloidin stained). The area of cell clusters was removed when analysing results.

[3] = test system: HaCaT cells; assay: HaCaT cell proliferation on liquid substrates (Hoechst staining); settings: fluorinated oil supplemented with the surfactant
Experimental: Generation of liquid-liquid interfaces for cell culture. 24 well plates were plasma oxidized using a plasma coater (Diener, 100% intensity) for 10 minutes. […] ethanol (VWR chemicals), 10 tL trimethylamine (Sigma-Aldrich) and 10 tL of the desired silane (triethoxy(octyl)silane (Sigma-Aldrich) to prepare interfaces with liquid PDMS or trichloro (1H, 1H, 2H, 2H-perfluorooctyl) silane (Sigma-Aldrich) for the fluorinated oil) were added into each well. Ethanol was added in between wells to slow down evaporation and parafilm was used to seal the well plate cover. After incubating for 24 h, the wells were washed in a sterile environment with ethanol (twice) and ddH2O (three times). […]
Hoechst staining and LIVE/DEAD cell viability assay. Cell proliferation was assessed via Hoechst staining. […] Viability of HaCaT cells on fluorinated oil interfaces was quantified by LIVE/DEAD viability/cytotoxicity assay using a kit supplied by Thermofisher Scientific. In brief, HaCaT cells were incubated in DMEM with 2 μM Calcein AM and 4 μM Ethidium homodimer for 30 min. stained cells were imaged using a Leica DM14000 fluorescence microscopy (see below). The percentage of viable cells was calculated by counting the number of green (live) cells and dividing by the total number of cells (including dead cells).
Immuno-fluorescence microscopy and data analysis. […]

[4] = test system: MSCs; assay: MSC culture on fluorinated oils conditioned with culture medium only; settings: after 7 days of culture; no protein nanosheets deposition, conditioning with cell culture medium
Experimental: Generation of liquid-liquid (FC-40) interfaces for cell culture. 24 well plates were plasma oxidized using a plasma coater (Diener, 100% intensity) for 10 minutes. […] ethanol (VWR chemicals), […] trimethylamine (Sigma-Aldrich) and […] of the desired silane (triethoxy(octyl)silane (Sigma-Aldrich) to prepare interfaces with liquid PDMS, or trichloro (1H, 1H, 2H, 2H-perfluorooctyl) silane (Sigma-Aldrich) for the fluorinated oil) were added into each well. Ethanol was added in between wells to slow down evaporation and parafilm was used to seal the well plate lid. After incubating for 24 h, the wells were washed in a sterile environment with ethanol (twice) and ddH2O (three times). 500 μL FC-40 (Sigma) was added in the fluorophilic 24 well plate to form the bottom liquid layer, 2 mL of MSC growth medium was directly added on the FC-40 layer, 5K cells were seeded in each well.

| SMILES | cell spreading on oil [1] | other results |
| --- | --- | --- |
| C[C@@H](N)[C@H]1CC[C@H](C(=O)Nc2ccncc2)CC1 [Y27632] | further decreased | integrity of keratinocyte cell sheets on oil [2]: preserved their integrity |
| Cc1ccc2c(c1)C(=O)C1(O)CCN(c3ccccc3)C1=N2 (stereo not drawn) [Blebbistatin, blebbistatin] | slight increase |  |
| C=C1[C@@H](C)[C@H]2[C@H](Cc3ccccc3)NC(=O)[C@]23[C@H](OC(C)=O)/C=C/[C@@](C)(O)C(=O)[C@@H](C)C/C=C/[C@H]3[C@@H]1O [cytochalasin D, Cytochalasin D] | further decreased |  |
| O=C(Cl)c1c(F)c(F)c(F)c(F)c1F [pentafluorobenzoyl chloride, 2,3,4,5,6-pentafluorobenzoyl chloride] |  | HaCaT cell proliferation at the surface of fluorinated oil [3]: proliferated |
| CCOC(F)(C(F)(F)C(F)(F)C(F)(F)F)C(F)(C(F)(F)F)C(F)(F)F (stereo not drawn) [Novec 7500, hexane, 3-ethoxy-1,1,1,2,3,4,4,5,5,6,6,6-dodecafluoro-2-(trifluoromethyl)] |  | MSC proliferation [4]: did not lead to any significant cell proliferation |
